Results taken from PMC10977697 (PLOS ONE, 2024).
Where a SMILES comes first, the peptide text is derived from it. Where no end group is shown, it is not given here.

Key:
Her3-Fc [1] = target: T1, Her3-Fc (Homo sapiens, UniProt P21860); assay: SPR binding to Her3-Fc; details: Biacore S200, 25°C; Her3-Fc Avi-tag on chip SA; HBS-EP+ plus 1% DMSO; MCK
T1 construct: purchased R&D 348-RB
Protocol: (§1) All binding experiments were performed using a Biacore S200 instrument (GE Healthcare) at 25°C at a flow rate of 50 μL/min. The kinetics and affinity measurements were carried out using either single-cycle or multi-cycle kinetics (SCK or MCK), solvent corrected and referenced by subtracting the signal to the blank flow cell. Binding affinity and kinetic parameters (association and dissociation rate constants, and dissociation equilibrium constant) were calculated with the Biacore S200 Evaluation Software (version 1.1.1, Cytiva) using either a 1:1 binding model or a steady-state equilibrium model (according to the manufacturer’s instructions).
Her3-Fc Avi-tag (R&D) was captured at about 1200 and 3000 RU on Series S Sensor Chip SA (Cytiva). The SPR measurements were done in HBS-EP+ buffer (0.01 M HEPES pH 7.4, 0.15 M NaCl, 3 mM EDTA, 0.05% v/v Surfactant P20) plus 1% v/v DMSO.

Her3-Fc [2] = target: T1, Her3-Fc; assay: Spot phage ELISA, Her3-Fc; assay type: binding
HtrA1 FL [3] = target: T2, HtrA1 FL (Homo sapiens, UniProt Q92743); assay: HtrA1 enzyme assay with substrate H2-OPT; assay type: biochemical; details: 20 μM DCP, 1 nM HtrA1, 5 μM H2-OPT, 15 min pre-incubation, 37°C, pH 8.0, 0.1% DMSO; average of three independent experiments (Fig 3B)
T2 construct: HtrA1 (Q23-P480, 5654, Tni Baculovirus); made in house; host or cells: Trichoplusia ni (Tni) cells, baculovirus
Protocol: Human full-length HtrA1 (HtrA1 FL) was expressed in Trichoplusia ni cells and purified as described. Enzyme assays with the fluorescence-quenched synthetic substrate Mca-[…](Dnp)KK (H2-OPT) were carried out essentially as described (Eigenbrot 2012). DCP stock solutions in DMSO were diluted in 50 mM Tris-HCl, pH 8.0, 200 mM NaCl, 0.25% CHAPS (assay buffer) and incubated with HtrA1 in 96-well black optical bottom plates for 15 min at 37°C. A 10 mM stock solution of H2-OPT in DMSO was diluted with water, prewarmed at 37°C and then added to the DCP-enzyme mixtures. The final concentrations in the reaction mixtures were: 1 nM HtrA1, 20 μM DCP, 5 μM H2-OPT, 0.1% DMSO. Substrate cleavage was measured at 37°C on a SPECTRAmax M5 microplate reader (Molecular Devices) and the initial rates of cleavage determined. […] The enzyme activities were expressed as percent of control values (without DCP). The determined values represent the average ± S.D. of three independent experiments.

HtrA1 FL [4] = target: T2, HtrA1 FL; assay type: binding; details: Biacore S200, 25°C; biotinylated HtrA1 FL on chip SA; 10 mM HEPES (8.0), 200mM NaCl, 0.25% CHAPS, 5% DMSO; steady state fitting; n/d = no binding; read-out: Kd(μM) SPR
HtrA1 = assay type: binding, human; details: ratio of signal for target protein over BSA background
Notch2Long = assay: Spot phage ELISA, Notch2Long; assay type: binding, human; details: Table 3, affinity maturation clones
Notch 2 = assay: Phage competition ELISA on Notch 2; assay type: binding, human; details: N2L_EET03 peptide against N2L_EET31 displaying phage (Fig 5C)
Excerpt: Subsequently, we selected another primary hit, N2L.EET31, for affinity maturation as outlined in Fig 5A with improved outcome. Despite displaying a weak ELISA signal, N2L.EET31 was identified as the most abundant sequence by NGS analysis (56.6% in round 4). […] Due to these observations, N2L.EET31 was selected as another candidate for affinity maturation. An NNK-walking experiment (described in the methods section) provided valuable information on the functional importance of individual loop residues. […] These residues are either crucial for binding or play a critical role in overall peptide folding. […] Based on this information, we designed hard randomization libraries for Loop 2 and Loop 3_4 as part of the second generation of affinity maturation.

[5] = target: T3, Notch2Long (Notch2 EGF6-EGF12) (Homo sapiens, UniProt Q04721); assay: SPR binding of synthetic DCPs to Notch2Long; details: Biacore S200, 25°C, 50 μL/min; synthetic in vitro folded peptide, 3-fold dilution from 100 μM; biotinylated N2L on chip SA; steady state fitting; at least three independent experiments; n/d = no binding
T3 construct: Biotinylated N2L protein (D219–E418, made in-house); His tag (cleaved yes); made in house; host or cells: CHO
T3 sequence (Q04721 219-418): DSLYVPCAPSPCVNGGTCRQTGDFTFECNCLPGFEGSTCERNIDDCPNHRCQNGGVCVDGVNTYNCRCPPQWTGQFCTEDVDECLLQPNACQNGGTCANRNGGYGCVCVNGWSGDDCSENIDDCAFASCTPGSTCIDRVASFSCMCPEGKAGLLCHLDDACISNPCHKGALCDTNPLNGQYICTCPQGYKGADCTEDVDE
Protocol: as §1
(§2) Biotinylated N2L protein (D219–E418, made in-house) and NRR protein (A1423–Q1677, made in-house) were captured at around 500, 1000 and 1500 RU on Sensor Chip SA (Cytiva).

[6] = target: T4, Notch2NRR (Notch2 NRR domain) (Homo sapiens, UniProt Q04721); assay: SPR binding of synthetic DCPs to Notch2NRR; details: Biacore S200, 25°C; synthetic folded peptide, 3-fold dilution from 100 μM; biotinylated NRR on chip SA; steady state fitting
T4 construct: NRR protein (A1423–Q1677, made in-house); His tag (cleaved yes); made in house; host or cells: CHO
T4 sequence (Q04721 1423-1677): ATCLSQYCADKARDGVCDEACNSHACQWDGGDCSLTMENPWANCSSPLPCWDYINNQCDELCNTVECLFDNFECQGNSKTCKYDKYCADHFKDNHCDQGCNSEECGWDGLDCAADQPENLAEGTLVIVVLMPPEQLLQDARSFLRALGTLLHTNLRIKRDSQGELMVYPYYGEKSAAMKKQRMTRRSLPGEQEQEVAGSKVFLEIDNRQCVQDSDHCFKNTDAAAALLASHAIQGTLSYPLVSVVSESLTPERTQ
Protocol: as §1, §2

Notch2NRR = assay: Spot phage ELISA, Notch2NRR; assay type: binding, human; details: ratio of signal for target protein over BSA background
BamA-amphipol = assay: Spot phage ELISA, BamA-amphipol; assay type: binding, bacterial
[7] = ratio of signal for target protein over BSA background

T1 sequence (P21860 20-643 limits assumed): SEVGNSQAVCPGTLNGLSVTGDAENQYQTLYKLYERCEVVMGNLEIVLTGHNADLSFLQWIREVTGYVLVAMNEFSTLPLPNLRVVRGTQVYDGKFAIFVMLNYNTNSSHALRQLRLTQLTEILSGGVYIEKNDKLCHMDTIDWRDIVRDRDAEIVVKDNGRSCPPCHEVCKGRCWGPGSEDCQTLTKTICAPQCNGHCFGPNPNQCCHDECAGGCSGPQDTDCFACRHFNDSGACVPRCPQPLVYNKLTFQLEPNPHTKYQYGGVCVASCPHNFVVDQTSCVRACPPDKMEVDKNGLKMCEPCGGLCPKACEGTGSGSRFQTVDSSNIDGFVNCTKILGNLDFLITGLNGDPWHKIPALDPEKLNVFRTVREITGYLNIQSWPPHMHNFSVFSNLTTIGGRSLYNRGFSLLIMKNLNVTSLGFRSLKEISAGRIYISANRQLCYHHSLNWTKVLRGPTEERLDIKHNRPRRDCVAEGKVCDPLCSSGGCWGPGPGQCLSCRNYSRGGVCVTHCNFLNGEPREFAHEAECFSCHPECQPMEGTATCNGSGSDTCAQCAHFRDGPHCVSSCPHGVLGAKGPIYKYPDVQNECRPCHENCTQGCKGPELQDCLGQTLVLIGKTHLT
T2 sequence (Q92743 23-480): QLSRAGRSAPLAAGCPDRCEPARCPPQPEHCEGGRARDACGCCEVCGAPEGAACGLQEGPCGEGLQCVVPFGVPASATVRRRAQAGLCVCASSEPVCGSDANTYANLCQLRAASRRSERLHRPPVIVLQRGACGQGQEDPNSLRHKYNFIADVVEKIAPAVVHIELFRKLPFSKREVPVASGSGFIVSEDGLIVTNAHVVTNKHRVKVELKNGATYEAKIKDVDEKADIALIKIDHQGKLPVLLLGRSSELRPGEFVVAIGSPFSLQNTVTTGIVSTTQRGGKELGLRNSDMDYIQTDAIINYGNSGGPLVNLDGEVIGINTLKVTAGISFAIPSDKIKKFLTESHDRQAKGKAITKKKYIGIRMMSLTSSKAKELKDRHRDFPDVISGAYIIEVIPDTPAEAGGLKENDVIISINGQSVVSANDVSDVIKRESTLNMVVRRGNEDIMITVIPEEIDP

`CC(C)C[C@@H]1NC(=O)[C@H](CCCNC(=N)N)NC(=O)[C@H](CCC(N)=O)NC(=O)[C@@H]2CSSC[C@@H](C(=O)N[C@@H](CCC(=O)O)C(=O)N[C@@H](CCC(=O)O)C(=O)O)NC(=O)[C@H](CCCCN)NC(=O)[C@@H]3CSSC[C@H](NC(=O)[C@H](CCC(=O)O)NC(=O)[C@H](CCCCN)NC(=O)[C@H](CO)NC(=O)[C@H]([C@@H](C)O)NC(=O)[C@H]([C@@H](C)O)NC(=O)[C@@H](NC(=O)[C@H](CO)NC(=O)[C@@H](N)C(C)C)CSSC[C@H](NC(=O)[C@H](CCC(N)=O)NC(=O)[C@H](CCC(=O)O)NC(=O)CNC(=O)[C@H](Cc4c[nH]c5ccccc45)NC(=O)[C@H](CO)NC(=O)[C@H]([C@@H](C)O)NC(=O)[C@H](CC(N)=O)NC(=O)[C@H](Cc4c[nH]cn4)NC1=O)C(=O)N[C@@H](C(C)C)C(=O)N[C@@H]([C@@H](C)O)C(=O)N[C@@H](CCCCN)C(=O)N[C@@H](Cc1ccccc1)C(=O)N3)C(=O)N[C@@H](Cc1c[nH]c3ccccc13)C(=O)N[C@@H](CO)C(=O)N[C@@H](C(C)C)C(=O)N2` [Her3-Fc_ChTx1] was tested, and the Kd (Her3-Fc [1]) was > 10 µM, the S/N (Her3-Fc [2]; [7]) was 22.6 and the ELISA (Her3-Fc [2]; spot phage ELISA signal, DCP displayed on M13 p8, L1 2) was 1.74.
`CC[C@H](C)[C@@H]1NC(=O)[C@H](CCC(N)=O)NC(=O)[C@H](CCCNC(=N)N)NC(=O)[C@H](C(C)C)NC(=O)[C@@H]2CSSC[C@H](NC(=O)[C@H](CC(=O)O)NC(=O)[C@H](Cc3ccccc3)NC(=O)[C@H](C)N)C(=O)N[C@@H](CC(C)C)C(=O)NCC(=O)N[C@@H](CCC(N)=O)C(=O)N[C@H]3CSSC[C@H](NC(=O)[C@H](Cc4ccc(O)cc4)NC(=O)[C@H](Cc4c[nH]cn4)NC(=O)[C@H](CO)NC(=O)[C@H](CC(C)C)NC(=O)[C@H](CC(N)=O)NC(=O)[C@H]([C@@H](C)CC)NC(=O)[C@H](C(C)C)NC(=O)[C@H](CCCNC(=N)N)NC(=O)[C@H](Cc4c[nH]c5ccccc45)NC(=O)[C@H](C(C)C)NC1=O)C(=O)N[C@@H](CC(N)=O)C(=O)N[C@@H](CO)C(=O)N[C@@H](CO)C(=O)N[C@H](C(=O)N[C@H](C(=O)N[C@@H](CCCNC(=N)N)C(=O)O)[C@@H](C)O)CSSC[C@H](NC(=O)[C@H](CCCNC(=N)N)NC(=O)CNC3=O)C(=O)N[C@@H](CC(=O)O)C(=O)N[C@@H](Cc1ccccc1)C(=O)N[C@@H](Cc1c[nH]cn1)C(=O)N[C@@H](CCCCN)C(=O)N[C@@H](CC(C)C)C(=O)N[C@@H](CCC(N)=O)C(=O)N2` [HtrA1_AVR62] (HELM PEPTIDE1{A.F.D.C.L.G.Q.C.G.R.C.D.F.H.K.L.Q.C.V.R.Q.I.V.W.R.V.I.N.L.S.H.Y.C.N.S.S.C.T.R}$PEPTIDE1,PEPTIDE1,4:R3-18:R3|PEPTIDE1,PEPTIDE1,8:R3-33:R3|PEPTIDE1,PEPTIDE1,11:R3-37:R3$$$V2.0; N-terminus and C-terminus assumed) was tested, and the “inhibition of HtrA1 activity” value (HtrA1 FL [3]) was “more than 75%”, the Kd (HtrA1 FL [4]) was > 15 µM and the S/N (HtrA1) was 19.5.
In the case of `CC[C@H](C)[C@@H]1NC(=O)[C@@H](NC(=O)CN)CSSC[C@@H]2NC(=O)CNC(=O)[C@H](C)NC(=O)[C@H](CC(C)C)NC(=O)[C@@H]3CSSC[C@@H](C(=O)NCC(=O)O)NC(=O)[C@H](CCC(N)=O)NC(=O)[C@H]([C@@H](C)CC)NC(=O)[C@H](Cc4c[nH]c5ccccc45)NC(=O)[C@H](C(C)C)NC(=O)[C@H](CCC(=O)O)NC(=O)[C@H](CSSC[C@H](NC(=O)[C@H](Cc4c[nH]c5ccccc45)NC(=O)[C@H](CC(C)C)NC(=O)[C@H](Cc4c[nH]cn4)NC(=O)[C@H](CO)NC(=O)[C@H](CCCCN)NC1=O)C(=O)N[C@@H](CCCCN)C(=O)N[C@@H](CCC(N)=O)C(=O)N[C@@H](CC(=O)O)C(=O)N[C@@H](CO)C(=O)N[C@@H](CC(=O)O)C(=O)N3)NC(=O)[C@H](C(C)C)NC2=O` [N2L.EET31] (HELM PEPTIDE1{G.C.I.K.S.H.L.W.C.K.Q.D.S.D.C.L.A.G.C.V.C.E.V.W.I.Q.C.G}$PEPTIDE1,PEPTIDE1,2:R3-19:R3|PEPTIDE1,PEPTIDE1,9:R3-21:R3|PEPTIDE1,PEPTIDE1,15:R3-27:R3$$$V2.0; N-terminus and C-terminus assumed), the “s/n ratio” value (Notch2Long; signal over BSA background) is reported as 0.4, the ELISA (Notch2Long; spot phage ELISA signal, display (p8 or p3) not given per clone) is reported as 0.1 and the “competition in phage competition ELISA” value (Notch 2) is reported as “exhibited competition with N2L.EET03”. For the same molecule, the Kd [5] was > 100 µM.
`CC(C)C[C@@H]1NC(=O)[C@@H](NC(=O)[C@H](CC(=O)O)NC(=O)[C@H](Cc2ccccc2)NC(=O)[C@H](C)N)CSSC[C@@H]2NC(=O)[C@H](CCC(N)=O)NC(=O)[C@H](CC(C)C)NC(=O)[C@H](CCCCN)NC(=O)[C@H](Cc3c[nH]cn3)NC(=O)[C@H](Cc3ccccc3)NC(=O)[C@H](CC(=O)O)NC(=O)[C@@H]3CSSC[C@@H](C(=O)N[C@H](C(=O)N[C@@H](CCCNC(=N)N)C(=O)O)[C@@H](C)O)NC(=O)[C@H](CO)NC(=O)[C@H](CO)NC(=O)[C@H](CC(N)=O)NC(=O)[C@H](CSSC[C@H](NC(=O)[C@H](CCC(N)=O)NC(=O)CNC1=O)C(=O)NCC(=O)N[C@@H](CCCNC(=N)N)C(=O)N3)NC(=O)[C@H](Cc1ccc(O)cc1)NC(=O)[C@@H]1CCCN1C(=O)[C@H](CO)NC(=O)[C@H](Cc1c[nH]cn1)NC(=O)[C@H](CCCNC(=N)N)NC(=O)[C@H](CC(N)=O)NC(=O)[C@H](CO)NC(=O)[C@H](Cc1c[nH]c3ccccc13)NC(=O)[C@H](C(C)C)NC2=O` [N2N-AVR-n6] (HELM PEPTIDE1{A.F.D.C.L.G.Q.C.G.R.C.D.F.H.K.L.Q.C.V.W.S.N.R.H.S.P.Y.C.N.S.S.C.T.R}$PEPTIDE1,PEPTIDE1,4:R3-18:R3|PEPTIDE1,PEPTIDE1,8:R3-28:R3|PEPTIDE1,PEPTIDE1,11:R3-32:R3$$$V2.0; N-terminus and C-terminus assumed) gave a Kd [6] of 0.8 µM and a s/n ratio (Notch2NRR) of 39.3.
Work on “GCTMWQRLQAKYCKQDSDCLAGCVCHAREKCG (also: bicyclic or more (positions not given here)) [BamA-amphipol EET I-II 1]” yielded a S/N (BamA-amphipol; [7]) of 8.1 and an ELISA (BamA-amphipol; spot phage ELISA signal, DCP displayed on M13 p8) of 1.50.
